Results: US11440870B2, “Cannabidiolic acid esters compositions and uses thereof” (Yissum Research Development Company of the Hebrew …, priority 2017, dated 2022)

Target: T1, human 5-HT1A receptors (Homo sapiens, UniProt P08908)
T1 construct: expressed in transfected cells; membranes used
T1 sequence (P08908 1-422): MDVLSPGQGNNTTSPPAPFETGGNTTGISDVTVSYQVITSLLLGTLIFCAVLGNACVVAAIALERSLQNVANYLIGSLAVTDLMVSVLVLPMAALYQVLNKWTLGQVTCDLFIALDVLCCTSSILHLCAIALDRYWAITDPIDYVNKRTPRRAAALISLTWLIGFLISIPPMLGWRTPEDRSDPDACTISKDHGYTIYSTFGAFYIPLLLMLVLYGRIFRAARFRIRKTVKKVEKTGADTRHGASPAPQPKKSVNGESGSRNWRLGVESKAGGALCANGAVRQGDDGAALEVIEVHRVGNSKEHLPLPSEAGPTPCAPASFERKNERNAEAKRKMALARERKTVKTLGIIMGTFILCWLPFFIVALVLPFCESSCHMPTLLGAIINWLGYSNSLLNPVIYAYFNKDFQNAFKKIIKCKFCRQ
Test: [35S]-GTPγS binding assay: enhancement of 8-OH-DPAT-induced stimulation, human 5-HT1A CHO cell membranes
Format: biochemical
Conditions: n=6
Experimental: CHO cells stably transfected with cDNA encoding human 5-HT1A receptors (a generous gift from Dr Keith Parker) were maintained at 37° C. and 5% CO2 in Gibco™ Ham's F-12 Nutrient Mix supplied by Fisher Scientific UK Ltd that was supplemented both with 2 mM L-glutamine, 10% FBS and 0.6% penicillin-streptomycin, all also supplied by Fisher Scientific UK Ltd, and with the disulphate salt of G418 [(2R,3S,4R,5R,6S)-5-amino-6-{[(1R,2S,3S,4R,6S)-4,6-diamino-3-{[(2R,3R,4R,5R)-3,5-dihy-droxy-5-methyl-4-(methylamino)oxan-2-yl]oxy}2-hydroxy cyclohexyl]oxy}-2-[(1R)-1-hydroxyethyl]oxane-3,4-diol; […]] supplied by Sigma-Aldrich UK.
[^35S]-GTPγS binding assay. Each assay was carried out with human 5-HT1A CHO cell membranes (50 μg protein per well), GTPγS-binding buffer (50 mM Tris-HCl; 50 mM Tris-Base; 5 mM MgCl2; 1 mM EDTA; 100 mM NaCl; 1 mM DTT and 0.1% BSA), 0.1 nM [^35S]-GTPγS and 30 μM GDP, in a final volume of 500 μL (Cascio et al., 2010). Binding was initiated by the addition of [^35S]-GTPγS to the wells. Non-specific binding was measured in the presence of 30 μM GTPγS. Assays were performed at 30° C. for 60 min (Cascio et al., 2010). The reaction was terminated by a rapid vacuum filtration method using Tris-binding buffer as described previously by Cascio et al. (2010), and the radioactivity was quantified by liquid scintillation spectrometry. In all the [^35S]-GTPγS-binding assays, 0.1 nM [^35S]-GTPγS was used, […] and a protein concentration of […]. CBDA, HU-580, 8-OH-DPAT and WAY100635 were stored at −20° C. as 10 mM stock solutions dissolved in DMSO.
Net agonist-stimulated [^35S]-GTPγS binding values were calculated by subtracting basal binding values (obtained in the absence of agonist) from agonist-stimulated values (obtained in the presence of agonist) (Cascio et al., 2010). Values are expressed as means and variability as SEM or as 95% confidence limits. Mean EC50 and mean maximal effect (Emax) values, and SEM or 95% confidence limits of these values, have been calculated by nonlinear regression analysis using the equation for a sigmoid concentration-response curve (GraphPad Prism). P values<0.05 were considered significant. The data and statistical analysis comply with the recommendations on experimental design and analysis in pharmacology (Curtis et al., 2015).

SMILES | Emax (pretreatment 0.01 nM CBDA (FIG. 1A)) [%] | Emax (pretreatment 0.1 nM CBDA (FIG. 1B), * P<0.05 vs vehicle) [%] | Emax (pretreatment 1.0 nM CBDA (FIG. 1C), * P<0.05 vs vehicle) [%] | Emax (pretreatment 10 nM CBDA (FIG. 1D), * P<0.05 vs vehicle) [%] | Emax (pretreatment 100 nM CBDA (FIG. 1E)) [%] | Effect of the compound by itself on [35S]-GTPγS binding (agonist or inverse agonist behaviour) (administered by itself at 0.01, 0.1, 1, 10 or 100 nM, data not shown) | Emax (pretreatment 0.001 nM HU-580 (FIG. 2A)) [%] | Emax (pretreatment 0.001 nM HU-580 (FIG. 2B), * P<0.05 vs vehicle) [%] | Emax (pretreatment 0.1 nM HU-580 (FIG. 2C), * P<0.05 vs vehicle) [%] | Emax (pretreatment 1.0 nM HU-580 (FIG. 2D), * P<0.05 vs vehicle) [%] | Emax (pretreatment 10 nM HU-580 (FIG. 2E), * P<0.05 vs vehicle) [%] | Emax (pretreatment 100 nM HU-580 (FIG. 2F)) [%]
C=C(C)[C@@H]1CCC(C)=C[C@H]1c1c(O)cc(CCCCC)c(C(=O)O)c1O [CBDA, Cannabidiolic acid] | 95.6 | 115 | 167 | 144 | 109 | – | – | – | – | – | – | –
C=C(C)[C@@H]1CCC(C)=C[C@H]1c1c(O)cc(CCCCC)c(C(=O)OC)c1O [HU-580, Cannabidiolic Acid Methyl Ester] | – | – | – | – | – | did not behave as a 5-HT1A receptor agonist or inverse agonist | 99.8 | 127 | 125 | 140 | 139 | 92
